Measurements reported in patent US20170240556A1, “BIFLUORODIOXALANE-AMINO-BENZIMIDAZOLE KINASE INHIBITORS FOR THE TREATMENT OF CANCER, AUTOIMMUNEINFLAMMATION AND CNS DISORDERS” (4SC DISCOVERY GMBH, priority 2012, published 2017).

Experiments:
[1] = target: Casein kinase 1 epsilon (CSKN1E) (Homo sapiens, UniProt P49674); test: Casein kinase assay, CK1 epsilon; type: biochemical; conditions: recombinant CSKN1E 30 nM, ATP 10 μM
Method: The recombinant protein Casein kinase 1 delta (CSKN1D) was added to the substrate solution in a concentration of 5 nM and gently mixed. Dilution series in of compounds of the present invention in DMSO were added to the reaction mixture, followed after 20 min by addition of a mixture of ATP and ^33P-ATP (specific activity 0.01 μCi/μl final) to a final concentration of 10 μM. Reactions were carried out at 25° C. for 120 min, followed by spotting the reactions onto P81 ion exchange filter paper. Unbound phosphate was removed by washing of the filters in 0.75% phosphoric acid. […] IC50 values and curve fits were obtained using the program Prism® (Graph Pad Software).
The above assay was also used to determine the inhibitory capacity of the compounds of the present invention on Casein Kinase 1 epsilon, wherein instead of CSKN1D, recombinant protein Casein kinase 1 epsilon (CSKN1E) was added to the substrate solution in a concentration of 30 nM and gently mixed.

[2] = target: Casein kinase 1 delta (CSKN1D) (Homo sapiens, UniProt P48730); test: Casein kinase assay, CK1 delta; type: biochemical; conditions: recombinant CSKN1D 5 nM, ATP 10 μM
Chain of Casein kinase 1 delta (CSKN1D) (P48730 whole entry): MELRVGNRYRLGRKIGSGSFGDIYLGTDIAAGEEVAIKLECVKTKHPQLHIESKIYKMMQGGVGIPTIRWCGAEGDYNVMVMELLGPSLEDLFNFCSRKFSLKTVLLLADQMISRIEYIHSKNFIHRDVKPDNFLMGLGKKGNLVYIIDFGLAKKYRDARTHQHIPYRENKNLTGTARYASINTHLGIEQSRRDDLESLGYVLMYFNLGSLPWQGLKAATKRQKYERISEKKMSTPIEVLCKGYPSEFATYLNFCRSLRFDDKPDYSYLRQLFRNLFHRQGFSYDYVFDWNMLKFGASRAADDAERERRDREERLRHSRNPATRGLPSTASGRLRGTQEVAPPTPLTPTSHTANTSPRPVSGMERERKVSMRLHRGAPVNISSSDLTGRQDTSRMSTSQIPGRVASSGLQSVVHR

Chain of Casein kinase 1 epsilon (CSKN1E) (P49674 whole entry): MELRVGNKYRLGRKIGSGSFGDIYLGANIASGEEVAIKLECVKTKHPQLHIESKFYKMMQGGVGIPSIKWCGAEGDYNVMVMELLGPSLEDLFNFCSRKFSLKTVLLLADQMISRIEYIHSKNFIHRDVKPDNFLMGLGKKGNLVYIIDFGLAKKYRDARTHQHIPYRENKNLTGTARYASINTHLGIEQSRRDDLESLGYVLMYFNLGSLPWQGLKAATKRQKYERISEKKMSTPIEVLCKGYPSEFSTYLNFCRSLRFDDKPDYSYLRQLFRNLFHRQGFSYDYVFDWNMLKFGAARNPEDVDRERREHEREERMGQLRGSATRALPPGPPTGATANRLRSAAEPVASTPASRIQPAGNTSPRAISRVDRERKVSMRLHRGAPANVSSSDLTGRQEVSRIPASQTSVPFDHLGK

Compound: COc1ccccc1C(=O)Nc1nc(C(=O)Nc2nc3cc4c(cc3[nH]2)OC(F)(F)O4)co1 [Compound 12, N-(2,2-difluoro-5H-[1,3]dioxolo[4′,5′:4,5]benzo[1,2-d]imidazol-6-yl)-2-(2-methoxybenzamido)oxazole-4-carboxamide]
- IC50 [1]: > 1000 nM
- IC50 [2]: 200 to 1000 nM

Compound: Cc1nn(-c2ccc(Cl)c(Cl)c2)c(C)c1C(=O)Nc1nc2cc3c(cc2[nH]1)OC(F)(F)O3 [Compound 14, 1-(3,4-dichlorophenyl)-N-(2,2-difluoro-5H-[1,3]dioxolo[4′,5′:4,5]benzo[1,2-d]imidazol-6-yl)-3,5-dimethyl-1H-pyrazole-4-carboxamide]
- IC50 [1]: > 1000 nM
- IC50 [2]: > 1000 nM

Compound: Cc1nn(-c2ccccc2)c(C)c1C(=O)Nc1nc2cc3c(cc2[nH]1)OC(F)(F)O3 [Compound 15, N-(2,2-difluoro-5H-[1,3]dioxolo[4′,5′:4,5]benzo[1,2-d]imidazol-6-yl)-3,5-dimethyl-1-phenyl-1H-pyrazole-4-carboxamide]
- IC50 [1]: > 1000 nM
- IC50 [2]: > 1000 nM

Compound: Nc1c[nH]c(C(=O)Nc2nc3cc4c(cc3[nH]2)OC(F)(F)O4)c1 [Compound 15B, 4-Amino-N-(2,2-difluoro-5H-[1,3]dioxolo[4′,5′:4,5]benzo[1,2-d]imidazol-6-yl)-1H-pyrrole-2-carboxamide]
- IC50 [1]: 200 to 1000 nM
- IC50 [2]: < 200 nM

Compound: O=C(Nc1nc2cc3c(cc2[nH]1)OC(F)(F)O3)c1cn(-c2ccccc2)nc1C(F)(F)F [Compound 16, N-(2,2-difluoro-5H-[1,3]dioxolo[4′,5′:4,5]benzo[1,2-d]imidazol-6-yl)-1-phenyl-3-(trifluoromethyl)-1H-pyrazole-4-carboxamide]
- IC50 [1]: 200 to 1000 nM
- IC50 [2]: 200 to 1000 nM

Compound: O=C(Nc1nc2cc3c(cc2[nH]1)OC(F)(F)O3)c1nsc(NC(=O)c2ccccc2OC(F)(F)F)n1 [Compound 17, N-(2,2-difluoro-5H-[1,3]dioxolo[4′,5′:4,5]benzo[1,2-d]imidazol-6-yl)-5-(2-(trifluoromethoxy)benzamido)-1,2,4-thiadiazole-3-carboxamide]
- IC50 [1]: < 200 nM
- IC50 [2]: < 200 nM

Compound: O=C(Nc1nc2cc3c(cc2[nH]1)OC(F)(F)O3)c1csc(-c2cccc(Cl)c2)n1 [Compound 17B, 2-(3-chlorophenyl)-N-(2,2-difluoro-5H-[1,3]dioxolo[4′,5′:4,5]benzo[1,2-d]imidazol-6-yl)thiazole-4-carboxamide]
- IC50 [1]: 200 to 1000 nM
- IC50 [2]: < 200 nM

Compound: O=C(Nc1nc2cc3c(cc2[nH]1)OC(F)(F)O3)c1ccncc1 [Compound 18, N-(2,2-difluoro-5H-[1,3]dioxolo[4′,5′:4,5]benzo[1,2-d]imidazol-6-yl)isonicotinamide]
- IC50 [1]: 200 to 1000 nM
- IC50 [2]: < 200 nM

Compound: O=C(O)c1cccc(C(=O)Nc2nc3cc4c(cc3[nH]2)OC(F)(F)O4)c1 [Compound 18B, 3-((2,2-Difluoro-5H-[1,3]dioxolo[4′,5′:4,5]benzo[1,2-d]imidazol-6-yl)carbamoyl)benzoic acid]
- IC50 [1]: 200 to 1000 nM
- IC50 [2]: 200 to 1000 nM

Compound: COc1ccc(OC)c(S(=O)(=O)Nc2nc(C(=O)Nc3nc4cc5c(cc4[nH]3)OC(F)(F)O5)cs2)c1 [Compound 19, N-(2,2-difluoro-5H-[1,3]dioxolo[4′,5′:4,5]benzo[1,2-d]imidazol-6-yl)-2-(2,5-dimethoxyphenylsulfonamido)thiazole-4-carboxamide]
- IC50 [1]: < 200 nM
- IC50 [2]: < 200 nM

Compound: O=C(Nc1nc2cc3c(cc2[nH]1)OC(F)(F)O3)c1ccsc1 [Compound 20, N-(2,2-difluoro-5H-[1,3]dioxolo[4′,5′:4,5]benzo[1,2-d]imidazol-6-yl)thiophene-3-carboxamide]
- IC50 [1]: 200 to 1000 nM
- IC50 [2]: < 200 nM

Compound: Cn1cccc1C(=O)Nc1nc2cc3c(cc2[nH]1)OC(F)(F)O3 [Compound 20B, N-(2,2-Difluoro-5H-[1,3]dioxolo[4′,5′:4,5]benzo[1,2-d]imidazol-6-yl)-1-methyl-1H-pyrrole-2-carboxamide]
- IC50 [1]: > 1000 nM
- IC50 [2]: 200 to 1000 nM

Compound: O=C(Nc1nc(C(=O)Nc2nc3cc4c(cc3[nH]2)OC(F)(F)O4)cs1)c1ccncc1 [Compound 21, N-(2,2-difluoro-5H-[1,3]dioxolo[4′,5′:4,5]benzo[1,2-d]imidazol-6-yl)-2-(isonicotinamido)thiazole-4-carboxamide]
- IC50 [1]: < 200 nM
- IC50 [2]: < 200 nM

Compound: Nc1ncc(Br)nc1C(=O)Nc1nc2cc3c(cc2[nH]1)OC(F)(F)O3 [Compound 22, 2-amino-6-bromo-N-(2,2-difluoro-5H-[1,3]dioxolo[4′,5′:4,5]benzo[1,2-d]imidazol-6-yl)pyrazine-2-carboxamide]
- IC50 [1]: > 1000 nM
- IC50 [2]: 200 to 1000 nM

Compound: O=C(Nc1nc2cc3c(cc2[nH]1)OC(F)(F)O3)c1csc(Nc2ccc(OC(F)(F)F)cc2)n1 [Compound 23, N-(2,2-difluoro-5H-[1,3]dioxolo[4′,5′:4,5]benzo[1,2-d]imidazol-6-yl)-2-((4-(trifluoromethoxy)phenyl)amino)thiazole-4-carboxamide]
- IC50 [1]: > 1000 nM
- IC50 [2]: > 1000 nM

Compound: O=C(Nc1nc2cc3c(cc2[nH]1)OC(F)(F)O3)c1coc(N2CCOCC2)n1 [Compound 24, N-(2,2-difluoro-5H-[1,3]dioxolo[4′,5′:4,5]benzo[1,2-d]imidazol-6-yl)-2-morpholinooxazole-4-carboxamide]
- IC50 [1]: 200 to 1000 nM
- IC50 [2]: 200 to 1000 nM

Compound: Cc1cc(C(F)(F)F)nc(Nc2nc(C(=O)Nc3nc4cc5c(cc4[nH]3)OC(F)(F)O5)cs2)n1 [Compound 25, N-(2,2-difluoro-5H-[1,3]dioxolo[4′,5′:4,5]benzo[1,2-d]imidazol-6-yl)-2-((4-methyl-6-(trifluoromethyl)pyrimidin-2-yl)amino)thiazole-4-carboxamide]
- IC50 [1]: > 1000 nM
- IC50 [2]: > 1000 nM

Compound: O=C(Nc1nc(C(=O)Nc2nc3cc4c(cc3[nH]2)OC(F)(F)O4)cs1)Nc1ccccc1OC(F)(F)F [Compound 26, N-(2,2-difluoro-5H-[1,3]dioxolo[4′,5′:4,5]benzo[1,2-d]imidazol-6-yl)-2-(3-(2-(trifluoromethoxy)phenyl)ureido)thiazole-4-carboxamide]
- IC50 [1]: < 200 nM
- IC50 [2]: < 200 nM

Compound: Cc1cc(C(=O)Nc2nc3cc4c(cc3[nH]2)OC(F)(F)O4)c(C)s1 [Compound 28, N-(2,2-difluoro-5H-[1,3]dioxolo[4′,5′:4,5]benzo[1,2-d]imidazole-6-yl)-2,5-dimethylthiophene-3-carboxamide]
- IC50 [1]: 200 to 1000 nM
- IC50 [2]: 200 to 1000 nM

Compound: O=C(Nc1nc2cc3c(cc2[nH]1)OC(F)(F)O3)c1csc(Br)c1 [Compound 29, 5-bromo-N-(2,2-difluoro-5H-[1,3]dioxolo[4′,5′:4,5]benzo[1,2-d]imidazole-6-yl)-thiophene-3-carboxamide]
- IC50 [1]: < 200 nM
- IC50 [2]: < 200 nM

Compound: O=C(Nc1nc2cc3c(cc2[nH]1)OC(F)(F)O3)c1csc([N+](=O)[O-])c1 [Compound 30, N-(2,2-difluoro-5H-[1,3]dioxolo[4′,5′:4,5]benzo[1,2-d]imidazole-6-yl)-5-nitrothiophene-3-carboxamide]
- IC50 [1]: < 200 nM
- IC50 [2]: < 200 nM

Compound: O=C(Nc1nc2cc3c(cc2[nH]1)OC(F)(F)O3)c1csc2ccccc12 [Compound 31, N-(2,2-difluoro-5H-[1,3]dioxolo[4′,5′:4,5]benzo[1,2-d]imidazol-6-yl)benzo[b]thiophene-3-carboxamide]
- IC50 [1]: 200 to 1000 nM
- IC50 [2]: < 200 nM

Compound: O=C(Nc1nc2cc3c(cc2[nH]1)OC(F)(F)O3)c1ccoc1 [Compound 32, N-(2,2-difluoro-5H-[1,3]dioxolo[4′,5′:4,5]benzo[1,2-d]imidazol-6-yl)furan-3-carboxamide]
- IC50 [1]: < 200 nM
- IC50 [2]: 200 to 1000 nM

Compound: Cc1occc1C(=O)Nc1nc2cc3c(cc2[nH]1)OC(F)(F)O3 [Compound 33, N-(2,2-difluoro-5H-[1,3]dioxolo[4′,5′:4,5]benzo[1,2-d]imidazol-6-yl)-2-methylfuran-3-carboxamide]
- IC50 [1]: 200 to 1000 nM
- IC50 [2]: < 200 nM

Compound: Cc1cc(C(=O)Nc2nc3cc4c(cc3[nH]2)OC(F)(F)O4)c(C)o1 [Compound 34, N-(2,2-difluoro-5H-[1,3]dioxolo[4′,5′:4,5]benzo[1,2-d]imidazol-6-yl)-2,5-dimethylfuran-3-carboxamide]
- IC50 [1]: > 1000 nM
- IC50 [2]: > 1000 nM

Compound: O=C(Nc1nc2cc3c(cc2[nH]1)OC(F)(F)O3)c1cocn1 [Compound 35, N-(2,2-difluoro-5H-[1,3]dioxolo[4′,5′:4,5]benzo[1,2-d]imidazol-6-yl)-oxazole-4-carboxamide]
- IC50 [1]: > 1000 nM
- IC50 [2]: 200 to 1000 nM

Compound: O=C(Nc1nc2cc3c(cc2[nH]1)OC(F)(F)O3)c1nnn(-c2cccc(F)c2)c1C(F)(F)F [Compound 36, N-(2,2-difluoro-5H-[1,3]dioxolo[4′,5′:4,5]benzo[1,2-d]imidazol-6-yl)-1-(3-fluorophenyl)-5-(trifluoromethyl)-1H-1,2,3-triazole-4-carboxamide]
- IC50 [1]: > 1000 nM
- IC50 [2]: 200 to 1000 nM

Compound: O=C(Nc1nc2cc3c(cc2[nH]1)OC(F)(F)O3)c1csc(N2CCOCC2)n1 [Compound 37, N-(2,2-difluoro-5H-[1,3]dioxolo[4′,5′:4,5]benzo[1,2-d]imidazol-6-yl)-2-morpholinothiazole-4-carboxamide]
- IC50 [1]: 200 to 1000 nM
- IC50 [2]: < 200 nM

Compound: O=C(Nc1nc2cc3c(cc2[nH]1)OC(F)(F)O3)c1csc(-c2ccc3c(c2)CCO3)c1 [Compound 38, N-(2,2-difluoro-5H-[1,3]dioxolo[4′,5′:4,5]benzo[1,2-d]imidazol-6-yl)-5-(2,3-dihydrobenzofuran-5-yl)thiophene-3-carboxamide]
- IC50 [1]: 200 to 1000 nM
- IC50 [2]: < 200 nM
